Assay results reported in US20180244548A1, “USE OF COPPER-CARBON COMPOSITE NANOMATERIAL IN ALGAE CONTROL” (Suzhou Guanjie Nano Anti-bacteria Coating Technology Co., …, priority 2015, published 2018).
Several values for one entry are separate records, joined by “and”; a condition that tells them apart may be missing. Equal entries are not always repeated.

Tests used:
[1] = tested on: scenedesmus (green algae), chlorella (green algae) and microcystis aeruginosa (blue algae); assay: laboratory algae growth inhibition, α content of chlorophyll over time; assay type: cell-based; details: copper sulfate 6 ppm
[2] = tested on: scenedesmus, chlorella and microcystis aeruginosa cells; assay: scanning electron microscope appearance observation of algae cells; assay type: cell-based; details: nanomaterial 6.25-50 ppm; activated carbon 50 ppm; copper oxide 50 ppm; copper sulfate 6 ppm

In the case of `O=S(=O)([O-])[O-].[Cu+2]` [copper sulfate], the “inhibition time of algae growth” value [1] was 7 to 9 days and 7 days and the “appearance of algae cells in scanning electron micrographs” value [2] was “completely changed”.
